Here are results for four molecules from US20210122771A1, “NEW MOLECULAR TWEEZERS AGAINST NEUROLOGICAL DISORDERS AND VIRAL INFECTIONS” (The Regents of the University of California, priority 2018, published 2021).

The target of one series is KAA. Format: binding. The settings on record: fluorometric titration in aqueous buffer at neutral pH; read-out: Dissociation constant Kd, KAA.
The next series deals with RGD. Format: binding. To be noted: fluorometric titration in aqueous buffer at neutral pH; read-out: Dissociation constant Kd, RGD.
Series [1] has as its system differentiated rat pheochromocytoma (PC-12) cells. The experiment in a line: Self-toxicity in differentiated PC-12 cells (MTT and/or LDH). The settings on record: MTT and/or LDH assays, highest concentration tested 100 μM. Here is the method:
(§1) The highest concentration tested was 100 μM. Non-toxic compounds then were tested for their ability to inhibit the toxicity of 10 μM Aβ42 in the same assay. The parent compound 1 was used as a control in both cases.

A further series deals with Aβ42-induced toxicity. The series can be described thus: Inhibition of Aβ42 toxicity in differentiated PC-12 cells (MTT/LDH). Format: cell-based, rat. To be noted: 10 μM Aβ42, differentiated PC-12 cells. The protocol: as §1
A short description of another series: Full 24-h PK profile. Also noted: Brain AUC: unit not given here. Format: in vivo, mice. Here is the method:
Based on the 2-time-point screen results, a full 24-h PK profile has been obtained for compounds 13 and 14. In these experiments, the blood and brain levels were measured at 7 time points—0.3, 0.6, 1, 2, 4, 8, and 24 h. Data for 1 are given for reference.

Series [2] in a line: PK screening in mice, three routes, two time points. To be noted: for Blood Concentration, 40 min / Brain Concentration, 40 min / Blood Concentration, 4 h / Brain Concentration, 4 h: analyte: administered compound for 13 and 14, compound 1 in all other cases. Here is the method:
Each compound was administered to the mice at 2 mg/kg intravenously (I.V.), 2 mg/kg subcutaneously (S.C.), or 10 mg/kg orally (P.O.).

The nature of series [3]: Incubation with mouse plasma, LC-MS/MS. The settings on record: incubation 1 h, LC-MS/MS every 15 min.
Series [4] can be described thus: Incubation with simulated gastric fluid, LC-MS/MS. The settings on record: incubation 1 h, LC-MS/MS every 15 min.
A short description of series [5]: Incubation with mouse liver microsomes, LC-MS/MS. Format: in vitro ADME. The settings on record: incubation 1 h, LC-MS/MS every 15 min. (Liver microsomes are a subcellular fraction often used to study metabolism.)
Where [6] appears, read: I.V., 24-h profile, 7 time points.
Setting [7] is: P.O., 24-h profile, 7 time points.
[8] abbreviates: S.C., 24-h profile, 7 time points.

As usually defined, the Kd is the free concentration of one partner at which half of the binding sites on the other are occupied at equilibrium, for simple one-to-one binding. For the molecule `C#CCCOP(=O)(O)Oc1c2c(c(OP(=O)(O)O)c3c1C1CC3c3cc4c(cc31)C1CC4c3ccccc31)C1CC2c2cc3c(cc21)C1CC3c2ccccc21` [Compound 12], the Kd at KAA was 20 µM; on RGD, 60 µM.

A word on the IC50: it is the midpoint of a concentration-inhibition curve. For the molecule `O=P([O-])(O)Oc1c2c(c(O)c3c1C1CC3c3cc4c(cc31)C1CC4c3ccccc31)C1CC2c2cc3c(cc21)C1CC3c2ccccc21.[Na+]` [Compound 13], the Self-toxicity result in series [1] is “Non-toxic”. Also, the “protective effect against Aβ42-induced toxicity compared to 1” value with Aβ42-induced toxicity is “higher protective effect”. The concentration for half-maximal inhibition (IC50) in the series with Aβ42-induced toxicity (LDH assay, read-out: Inhibition of Aβ42 toxicity, IC50 (LDH)) worked out at 16 µM. The LogBB in the series “Full 24-h PK profile” (I.V., 24-h profile) was −2.06; in the series “Full 24-h PK profile” (P.O., 24-h profile) it was −1.84; in “Full 24-h PK profile” (S.C., 24-h profile), 3.31. Further, the results for the “Blood T1/2” value in “Full 24-h PK profile” (setting [6]), in the series “Full 24-h PK profile” (setting [7]) and in “Full 24-h PK profile” (setting [8]) were 1.2 h, 16 h and 11.1 h, respectively. The figures for the “Brain AUC” value in the series “Full 24-h PK profile” (setting [6]) and in “Full 24-h PK profile” (setting [7]) were 3.71 and 1.33, respectively. Besides, the “Brain T1/2” value in “Full 24-h PK profile” (setting [6]) came out at 1.5 h; in the series “Full 24-h PK profile” (setting [7]), 3.1 h; in “Full 24-h PK profile” (setting [8]), 1.1 h. Also, the “Blood AUC” value in “Full 24-h PK profile” (I.V., 24-h profile, 7 time points, in ng·h/mL) amounted to 423; in “Full 24-h PK profile” (P.O., 24-h profile, 7 time points, in ng·h/mL) it was 91.2; in the series “Full 24-h PK profile” (S.C., 24-h profile, 7 time points, in ng·h/mL), 1043. In addition, the “Blood Bioavailability” value in the series “Full 24-h PK profile” (P.O., 24-h profile) is given as 21.6%; in “Full 24-h PK profile” (S.C., 24-h profile) it was 246.7%. Moreover, the “BBB penetration relative to compound 1” value in the series “Full 24-h PK profile” (full 24-h PK profile) is “improved”. For the same molecule, the “Blood Concentration, 40 min” value in [2] (mice, 2 mg/kg I.V., 40 min) worked out at 55 ng/mL; in series [2] (mice, 2 mg/kg S.C., 40 min), 98 ng/mL; in series [2] (mice, 10 mg/kg P.O., 40 min), 0.0 ng/mL. The “Brain Concentration, 40 min” value in series [2] (mice, 2 mg/kg I.V., 40 min) was 3.58 ng/g; in [2] (mice, 2 mg/kg S.C., 40 min), 1.19 ng/g; in series [2] (mice, 10 mg/kg P.O., 40 min) it was 1.79 ng/g. The “BBB penetration, 40 min” value in series [2] (mice, 2 mg/kg I.V., 40 min, percent ratio between brain and blood concentration) is on record as 6.5%; in series [2] (mice, 2 mg/kg S.C., 40 min, percent ratio between brain and blood concentration) it was 1.2%. Besides, the “Blood Concentration, 4 h” value in series [2] (mice, 2 mg/kg I.V., 4 h) stood at 53 ng/mL; in [2] (mice, 2 mg/kg S.C., 4 h) it was 50 ng/mL; in [2] (mice, 10 mg/kg P.O., 4 h) it was 0.3 ng/mL. Moreover, the “Brain Concentration, 4 h” value came to 1.28 ng/g in series [2] (mice, 2 mg/kg I.V., 4 h); 1.69 ng/g in [2] (mice, 2 mg/kg S.C., 4 h); 0.26 ng/g in [2] (mice, 10 mg/kg P.O., 4 h). Further, the “BBB penetration, 4 h” value turned out to be 2.4% in series [2] (mice, 2 mg/kg I.V., 4 h, percent ratio between brain and blood concentration); 3.4% in series [2] (mice, 2 mg/kg S.C., 4 h, percent ratio between brain and blood concentration); 100% in series [2] (mice, 10 mg/kg P.O., 4 h, percent ratio between brain and blood concentration). Moreover, the “Bioavailability, 40 min” value in series [2] (mice, 2 mg/kg S.C., 40 min, percent ratio of the I.V. blood concentration) is listed as 178.2%; in series [2] (mice, 10 mg/kg P.O., 40 min, percent ratio of the I.V. blood concentration), 0.0%. In addition, the “Bioavailability, 4 h” value in [2] (mice, 2 mg/kg S.C., 4 h, percent ratio of the I.V. blood concentration) was 94.3%; in [2] (mice, 10 mg/kg P.O., 4 h, percent ratio of the I.V. blood concentration) it was 0.5%. For the same molecule, in series [2] (mice, 10 mg/kg P.O., 40 min, percent ratio between brain and blood concentration), the “BBB penetration, 40 mm” value is on record as 0.0%.

For the molecule `COc1c2c(c(OP(=O)([O-])O)c3c1C1CC3c3cc4c(cc31)C1CC4c3ccccc31)C1CC2c2cc3c(cc21)C1CC3c2ccccc21.[Na+]` [Compound 14], the “BBB penetration relative to compound 1” value in “Full 24-h PK profile” (mouse, in vivo) is listed as “improved”. Moreover, in “Full 24-h PK profile” (mouse, in vivo, iv), the “Blood AUC” value amounted to 1880, the “Blood T1/2” value was 1.7 h, the “Brain AUC” value was 73.2 and the “Brain T1/2” value was found to be 0.8 h. In addition, the LogBB in “Full 24-h PK profile” (mouse, in vivo, iv) was −1.41. For the same molecule, in the series “Full 24-h PK profile” (mouse, in vivo, po), the “Blood AUC” value stood at 16.1, the “Blood Bioavailability” value is given as 0.9%, the “Blood T1/2” value is recorded as 4.4 h and the “Brain AUC” value is 13.7. In “Full 24-h PK profile” (mouse, in vivo, po), the “Brain T1/2” value amounted to 6.5 h, the LogBB is given as −0.07 and the “oral bioavailability relative to compound 1” value was “improved”. For the same molecule, in “Full 24-h PK profile” (mouse, in vivo, sc), the “Blood AUC” value is 1147, the “Blood Bioavailability” value was determined as 61.0%, the “Blood T1/2” value came to 14.8 h and the “Brain AUC” value worked out at 4.4. In addition, in the series “Full 24-h PK profile” (mouse, in vivo, sc), the LogBB is 0. In series [2] (mouse, in vivo, 2 mg/kg), the “Bioavailability, 40 min” value amounted to 281.1% and the “Bioavailability, 4 h” value stood at 291.2%. In series [2] (mouse, in vivo, 10 mg/kg), the “Bioavailability, 40 min” value is recorded as 3.9% and the “Bioavailability, 4 h” value is reported as 20.3%. Moreover, in series [2] (mouse, in vivo, iv), the “BBB penetration when administered I.V. (compared to 1)” value is given as “substantially increased”. Further, in series [2] (mouse, in vivo, iv, 2 mg/kg), the “BBB penetration, 40 min” value worked out at 10.0% and the “BBB penetration, 4 h” value is listed as 65.9%. In series [2] (mouse, in vivo, po, 10 mg/kg), the “BBB penetration, 40 mm” value came out at 6.1% and the “BBB penetration, 4 h” value is listed as 2.6%. For the same molecule, in [2] (mouse, in vivo, sc, 2 mg/kg), the “BBB penetration, 40 min” value was 0.1% and the “BBB penetration, 4 h” value was 0.4%.

Regarding `O=C(O)Cc1ccccc1Nc1c(Cl)cccc1Cl` [diclofenac], the “hydrolysis in mouse plasma” value in series [3] is on record as “hydrolyzed quantitatively”. Besides, in series [4], the “hydrolysis in simulated gastric fluid” value is recorded as “hydrolyzed quantitatively”. The “hydrolysis in mouse liver microsomes” value in series [5] is “hydrolyzed quantitatively”.
